Test results published in patent US8507508B2, “Solid forms of pemetrexed” (Dr. Reddy's Laboratories Limited, priority 2007, dated 2013).
Each block holds one molecule with its values, some of them ahead of it.

Test: Physical stability on storage, checked by retention of the original XRPD pattern
Assay type: physicochemical
From the text: All XRPD data reported herein were obtained using a Bruker or PANalytical AXS D8 Advance Powder X-ray Diffractometer at Cu Kα radiation, having the wavelength 1.5418 Å. Since some margin of error is possible in the assignment of 2 theta angles and d-spacings, the preferred method of comparing X-ray powder diffraction patterns in order to identify a particular crystalline form is to overlay the X-ray powder diffraction pattern of the unknown form over the X-ray powder diffraction pattern of a known form. For all analytical data discussed in this application, it should be kept in mind that specific values depend on many factors, e.g., specific instrument, sample preparation and individual operator.
The obtained sample kept in a sealed polythene bag at a temperature of 20° C. to 25° C. for a period of 58 days to check the physical stability.
The obtained sample kept in a sealed polythene bag at a temperature of 20 to 25° C. for a period of 7 days to check the physical stability.
The obtained sample kept in a sealed polythene bag at a temperature of 20 to 25° C. for a period of 3 days to check the physical stability.
The sample was kept in a petri dish and stored at room temperature for a period of 24 hours to check the physical stability.

physical stability (XRPD and physical observation) (sealed polythene bag, 20° C. to 25° C., 58 days): retain its amorphous nature
Compound: Nc1nc2[nH]cc(CCc3ccc(C(=O)N[C@@H](CCC(=O)[O-])C(=O)[O-])cc3)c2c(=O)[nH]1.[Na+].[Na+] [Example 1, Amorphous Pemetrexed Disodium]

physical stability (XRPD) (sealed polythene bag, 20 to 25° C., 7 days): retain its amorphous form
Compound: Nc1nc2[nH]cc(CCc3ccc(C(=O)N[C@@H](CCC(=O)[O-])C(=O)[O-])cc3)c2c(=O)[nH]1.[Na+].[Na+] [Example 3, Amorphous Pemetrexed Disodium]

physical stability (XRPD) (petri dish, room temperature, 24 hours): retain its polymorphic form
physical stability (XRPD) (sealed polythene bag, 20 to 25° C., 3 days): retain its polymorphic form
Compound: Nc1nc2[nH]cc(CCc3ccc(C(=O)N[C@@H](CCC(=O)[O-])C(=O)[O-])cc3)c2c(=O)[nH]1.[Na+].[Na+] [Example 4, Amorphous Pemetrexed Disodium]
